We go through six compounds from patent publication US5646185A, “Tumor treatment method” (priority 1993, dated 1997).

The test system of one data set is PKC-epsilon. Description: Western blot of PKC epsilon levels in hypoxic tumor cells. The format is cell-based, human. The note with it: for effect on PKC epsilon induction/activation by hypoxia and TPA: alone or in combination, FIG. 9. On the procedure: Western blotting methods, as detailed in Example 2, were used to validate that the treatment method of the invention increases levels of PKC. […] Little accumulation is seen before 9 hours of hypoxic exposure.
Cells were lysed in a 50 mM phosphate buffer, sonicated with 4.5 second pulses of 75 W with cooling on ice between pulses, and followed by 3 rounds of freezing/thawing. Protein concentrations of each sample may be estimated using the bicinchoninic acid method. 200 μg of protein were loaded per lane. After running for 2 hours at 40 mA in a 7.5% polyacrylamide gel, the gel is transferred onto Hybond ECL, (Amersham, Arlington Heights, Ill.) for 2 hours with the use of a Bio-Rad semi-dry transfer system. After the transfer, the gel may be stained with 0.15% Coomassie blue to ensure uniform transfer. […] Preferably, the membrane is probed using the method described in Kim, et al., which is incorporated herein by reference, and autoradiographed utilizing enhanced chemiluminescence (ECL) according to the manufacturer's protocol (Amersham, Arlington Heights, Ill.).
On the technique in general: Immunoblotting shows a protein as a band on a membrane.

Data set [1] relates to A549 human adenocarcinoma cells. Description: Survival (colony forming) assay of tumor cells under aerobic or hypoxic conditions with drug treatment. To be noted: for reduction of cell survival in hypoxic cells relative to the cell survival fraction with hypoxia alone: 20 hours of hypoxia (0.02% O2); for aerobic cytotoxicity of the drug by itself: TPA 1 uM, PDA 1 uM, OAG 200 uM, thapsigargin 2 uM, compound 48/80 50 mg/ml, pentoxyfylline 1 mM; for effect on cell survival in normally oxygenated (aerated) cells: aerated A549 cells. On the procedure:
A549 human adenocarcinoma cells were maintained in culture with alpha MEM containing 10% fetal calf serum. Cells were plated two days before hypoxia treatment in 60 mm glass (Corning) tissue culture dishes with notched sides at a density of 1×10^6 cells/dish. Hypoxia treatment of cells may be performed in any method known and available to those skilled in the art.
On the day of the hypoxia treatment, cells were re-fed with fresh media and incubated 4-6 hours before being exposed to hypoxia. The petri dishes were preferably then placed in specially designed aluminum hypoxia chambers that are prewarmed overnight at 37° C. The chambers were sealed and subjected to successive rounds of evacuation followed by flushing with 95% N2 /5% CO2 while slowly being agitated on a reciprocating shaker. The chambers were then placed in a 37° C. incubator and kept on a reciprocating shaker for the duration of the hypoxic treatment.
Oxygen concentration may be monitored with the use of a Clark-type electrode, such as commercially available from Controls Katharobic, Edmonton, Canada.
After hypoxic treatment, the seals to the chambers were broken, and the cells were washed with phosphate buffered saline, trypsinized, and then plated into tissue culture dishes to assay for colony forming ability.
All drugs were made from fresh stocks on the day of the treatment. In the combined drug and hypoxia treatments, the cells were pretreated for one hour with the drug before being exposed to hypoxia and then plated into tissue culture plates. Cells were then treated in accordance with several different methods: 1) exposure of the cells to thapsigargin for one hour prior to and continuous exposure for the duration of the hypoxia, and then plated for survival; 2) one hour exposure to the PKC activator drug in standard air followed by continuous exposure for the duration of hypoxia, and then plated for survival; 3) continuous exposure during hypoxia to TPA followed by immediate plating for survival; 4) 19 hour hypoxia treatment followed by one hour exposure to TPA in air or hypoxia using a Bactron II anaerobic chamber (Sheldon Labs, Cornelius, Oreg.), and then plating for survival; 5) continuous exposure during 19 hours of hypoxia with phospholipase inhibitors (compound 48/80 and pentoxyfylline), exposure to TPA for 1 hour in air, and then plating for survival.
TPA, PDA, staurosporine, compound 48/80, and pentoxyfylline are commercially available from Sigma Chemicals, St. Louis, Mo. Thapsigargin, herbimycin A, and genistein are commercially available from Gibco/BRL, Gaithersberg, Md.
After various experimental treatments, cells were plated into Nunc tissue culture plates at the appropriate concentrations in triplicate. The plates are placed in a 37° C. incubator and stained 10 days after the experiment with 1% crystal violet in 10% methanol. Viable colonies are defined as colonies with 50 or more cells.

Another data set has as its target protein kinase C (PKC). Description: Protein kinase C (PKC) activation assay. The note with it: approximate. The format is biochemical.
In data set [2] the test system is A549 human adenocarcinoma cells. Description: Pulsed-field gel electrophoresis of DNA degradation in hypoxia-treated cells. To be noted: added to hypoxia treated cells. The format is cell-based. An excerpt:
The mechanism of cell death by hypoxia appears to be necrosis rather than apoptosis. Using pulsed-field gel electrophoresis, a steady increase in DNA degradation as a function of time under hypoxia may be found. The methods followed those given in Example 2. The pattern of DNA degradation (not shown) is not one that is characteristic of apoptosis. The DNA was not fragmented into distinct nucleosome ladders, which is one of the hallmark characteristics of apoptosis; rather, it separated as a smear which is indicative of death by necrosis.
Pulsed-field gel electrophoresis may be performed in any manner known and available to those skilled in the art. One preferred method is described in Giaccia, 1992b, which is incorporated herein by reference. Briefly, fresh media was added to all of the treatment groups on the day of the treatment. After treatment, cells were washed with phosphate buffered saline (PBS), trypsinized, and resuspended in 1% agarose/PBS. The cells embedded in agarose were allowed to solidify in glass tubes and then cut into 5 mm plugs. The plugs were lysed in 0.5M EDTA, 1% sarkosyl, and 1 mg/ml proteinase K (Boehringer Mannheim, Indianapolis), and incubated at 50° C. for 16 hours in this lysis buffer.
After dialyzing the plugs against 25 volumes of 10 mM Tris and 1 mM EDTA for 4 hours, the plugs were then treated with 20 mg/ml RNase A for 3 hours at 37° C. […]

SMILES strings stand for the structures.

Method for protein kinase C (PKC): The EC50 is the concentration of compound that produces half-maximal stimulation of protein kinase C activity in a given assay.
Protein kinase C activation is measured in an assay that measures PKC phosphorylation activity using as substrate for PKC myelin basic protein. […] The reaction was initiated by an appropriate amount of crude cytosol extract. The phosphorylated product from 10 μl of reaction mixture was quantified using phospho-cellulose paper and washing method of Cook, et al. Background ^32 P incorporation in the absence of calcium and phosphatidyl serine/diolein and in the presence of 1 mM EGTA was subtracted from total incorporation in the complete PKC assay reaction mixture to determine the extent of PKC-dependent phosphorylation.
Suitable for use in this assay as a PKC source is either a crude extract, prepared as below, or, more preferably, purified PKC. Purified PKC is obtained from commercial sources.

Regarding `COC1C=CC=C(C)C(=O)NC2=CC(=O)C=C(C2=O)C(OC)C(C)CC(OC)C(OC)C(C)C=C(C)C1OC(N)=O` (stereo not shown) [herbimycin A], the “effect on PKC epsilon induction/activation by hypoxia and TPA” value with PKC-epsilon is listed as “has no effect on PKC induction”.
As to `CCCCCCCCCCCCCC(=O)O[C@@H]1[C@@H](C)[C@@]2(O)[C@@H](C=C(CO)C[C@]3(O)C(=O)C(C)=C[C@@H]23)[C@@H]2C(C)(C)[C@]12OC(C)=O` [TPA, 12-O-tetradecanoyl-phorbol-13-acetate], the “selective killing of hypoxic versus aerobic cells” value in data set [1] (1 μM, FIG. 3) is recorded as “selectively killed hypoxic, but not aerobic cells”. In data set [1] (FIG. 3), the “reduction of cell survival in hypoxic cells relative to the cell survival fraction with hypoxia alone” value is on record as “about 1,000 fold” and the “effect on cell survival in normally oxygenated (aerated) cells” value (“effect on cell survival … (aerated) cells” for short) is on record as “none of the PKC activators had an appreciable effect on cell survival”. Moreover, the “aerobic cytotoxicity of the drug by itself” value (“aerobic cytotoxicity” below) in data set [1] is recorded as “little or no aerobic cytotoxicity”. Also, the EC50 on protein kinase C (PKC) is about 1 µM. Besides, the “increase in PKC levels over that of hypoxia alone” value in the data set with PKC-epsilon (one hour exposure following 19 hours of hypoxia, FIG. 7B, 60 min) came out at 5 fold. For the same compound, in data set [2], the “DNA fragmentation over that found with hypoxia treatment alone” value was “does not increase DNA fragmentation”.
As to `C/C=C(/C)C(=O)O[C@H]1C(C)=C2[C@H]([C@@H]1OC(=O)CCCCCCC)[C@@](C)(OC(C)=O)C[C@H](OC(=O)CCC)[C@@]1(O)[C@H]2OC(=O)[C@@]1(C)O` [thapsigargin], the “selective killing of hypoxic cells” value in data set [1] (2 μM, FIG. 3) is “selectively killed hypoxic cells”. Moreover, in data set [1] (FIG. 3), the “reduction of cell survival in hypoxic cells relative to the cell survival fraction with hypoxia alone” value was “about 1,000 fold” and the “effect on cell survival … (aerated) cells” value was “none of the PKC activators had an appreciable effect on cell survival”. Further, in data set [1], the “aerobic cytotoxicity” value is “little or no aerobic cytotoxicity”.
Turning to `CC(=O)CCCCn1c(=O)c2c(ncn2C)n(C)c1=O` [pentoxyfylline], the “protection against TPA mediated hypoxic cell killing (increase in survival)” value in data set [1] (inhibitor during 19 hours of hypoxia, then TPA 1 hour, FIG. 8) was determined as 100 fold. Also, the “effect on PKC epsilon induction/activation by hypoxia and TPA” value in the data set with PKC-epsilon is on record as “do not inhibit PKC activation”.
Turning to `CCCCCCCC/C=C\CCCCCCCC(=O)OCC(CO)OC(C)=O` (stereo not shown) [OAG, 2-acetyl-1-oleoylglycerol], in data set [1], the “aerobic cytotoxicity” value was “little or no aerobic cytotoxicity”. Further, the “effect on cell survival … (aerated) cells” value in data set [1] (FIG. 3) is given as “none of the PKC activators had an appreciable effect on cell survival”.
Take `CCCCCCCCCC(=O)O[C@@H]1[C@@H](C)[C@@]2(O)[C@@H](C=C(CO)C[C@@]3(O)C(=O)C(C)=C[C@@H]23)[C@@H]2C(C)(C)[C@]12OC(=O)CCCCCCCCC` [PDA, 4α-phorbol-12-13-didecanoate]: the “aerobic cytotoxicity” value in data set [1] is reported as “little or no aerobic cytotoxicity”. For the same compound, the “effect on cell survival (control phorbol ester)” value in data set [1] (aerobic and hypoxic A549 cells, FIG. 3) is given as “indistinguishable from no drug treatment”. The “effect on steady state levels of PKC” value in the data set on PKC-epsilon (data not shown) was “has no effect”.

As a reminder, the EC50 is the midpoint of the concentration-response curve.
